# What was measured:
# [1] = molecular target: T1, hGluR1 flip (Homo sapiens, UniProt P42261); test: AMPA receptor function-enhancing activity using calcium influx as index; format: cell-based; details: test compound 30 μM with 3 mM glutamic acid; CHO-K1/GluR1 flip/stargazin-expressing cells; 100% = 3 mM glutamic acid + 300 μM cyclothiazide, 0% = 3 mM glutamic acid alone
# T1 construct: expressed in transfected cells; host or cells: CHO-K1
# In short: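 CHO-K1 cells co-expressing human GluR1 flip and stargazin, loaded with Calcium5 dye with 1.25 mM probenecid. Test compound at 30 μM added with 3 mM glutamate; fluorescence followed 3 min. Activity % scaled between glutamate alone (0%) and glutamate plus 300 μM cyclothiazide (100%).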
# [2] = system: Long Evans rats; test: Novel object recognition test; format: in vivo, rat; details: 1 mg/kg p.o.; for Novel Object Interaction (%): 1 hr before acquisition trial and 1 hr before retention trial, retention trial 48 hr after acquisition, mean ± standard error; for novel object interaction (result in words): rats
# Source text: Experimental Example 2 Novel Object Recognition Test (1) Animals
# Male Long Evans rats were supplied by Japan SLC, and used at 7-week-old in the experiments. After arrival to the vivarium, animals were allowed a minimum of 1 week for acclimation. They were housed under a 12:12-h light/dark cycle in a temperature- and humidity-controlled laboratory and allowed food and water ad libitum.
# A test compound was suspended in 0.5% methylcellulose in distilled water and orally administered (p.o.). All test compounds were dosed in a volume of 2 mL/kg body weight for rats.
# (3) Novel Object Recognition Test
# Novel object recognition test is a test system utilizing the novel object preference characteristics of rodents. This novel object recognition test consists of two trials, “acquisition trial” and “retention trial”, and, when an interval between these two trials is short, rodents spend a longer period for novel object exploration behaviors, and the preference dissipates as the interval gets longer. From this, the behavioral change in the novel object recognition test is considered to reflect the rodents' memory of the object during the acquisition trial. In this experimental example, the retention trial was carried out 48 hr after the acquisition trial. On the day before the test, for acclimation, Long-Evans ats were allowed to freely move about the test box (40×40×50 cm) for 10 minutes. On the test day, the rats were acclimated to the test room for about 1 hr prior to the test. The test compound (Compound A (Example 14), Compound B (Example 48), 1 mg/kg) were orally administered to the rats twice 1 hr before the acquisition trial and 1 hr before the retention trial. For the acquisition trial, two identical objects (A1, A2) were placed in the test box. The rats were put in the test box for 3 min, and the duration contacting each object was measured. The retention trial was carried out 48 hr after the acquisition trial. For the retention trial, the familiar object (A3) used for the acquisition trial and the novel object (B) different shape from A3 were placed in the test box. The rats were put in the test box for 3 min. The duration contacting each object in the acquisition trial and the retention trial, and the novel object interaction (%) was calculated. The novel object interaction (%) was expressed as (the duration contacting the novel object)/[(the duration contacting the novel object)+(the duration contacting the familiar object)]×100(%) at mean±standard error.
# T1 sequence (P42261 19-906 isoform P42261-2 limits assumed): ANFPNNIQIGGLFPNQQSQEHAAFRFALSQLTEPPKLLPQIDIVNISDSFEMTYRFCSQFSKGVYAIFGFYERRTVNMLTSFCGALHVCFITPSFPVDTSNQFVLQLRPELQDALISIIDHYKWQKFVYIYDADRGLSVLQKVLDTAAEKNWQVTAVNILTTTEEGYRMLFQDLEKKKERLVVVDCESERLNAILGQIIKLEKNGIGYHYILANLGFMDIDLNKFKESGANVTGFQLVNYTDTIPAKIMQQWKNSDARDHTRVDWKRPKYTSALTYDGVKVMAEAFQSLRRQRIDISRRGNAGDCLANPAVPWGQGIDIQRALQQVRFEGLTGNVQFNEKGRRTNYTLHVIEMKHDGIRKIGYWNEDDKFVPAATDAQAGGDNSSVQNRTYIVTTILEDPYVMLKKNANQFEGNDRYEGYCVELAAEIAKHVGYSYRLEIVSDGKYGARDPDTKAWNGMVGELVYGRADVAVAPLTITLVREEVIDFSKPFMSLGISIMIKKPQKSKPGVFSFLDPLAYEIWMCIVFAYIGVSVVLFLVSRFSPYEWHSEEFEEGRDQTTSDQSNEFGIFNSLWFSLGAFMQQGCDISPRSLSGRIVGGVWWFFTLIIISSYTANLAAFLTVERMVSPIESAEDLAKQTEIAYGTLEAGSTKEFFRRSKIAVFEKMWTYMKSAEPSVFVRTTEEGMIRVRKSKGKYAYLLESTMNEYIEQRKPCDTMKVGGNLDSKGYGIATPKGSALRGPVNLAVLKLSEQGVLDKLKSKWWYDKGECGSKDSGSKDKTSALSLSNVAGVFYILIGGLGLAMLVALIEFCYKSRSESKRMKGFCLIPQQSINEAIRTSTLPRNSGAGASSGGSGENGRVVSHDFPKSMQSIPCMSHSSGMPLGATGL
# T1 sequence (Q9Y698 whole entry partner): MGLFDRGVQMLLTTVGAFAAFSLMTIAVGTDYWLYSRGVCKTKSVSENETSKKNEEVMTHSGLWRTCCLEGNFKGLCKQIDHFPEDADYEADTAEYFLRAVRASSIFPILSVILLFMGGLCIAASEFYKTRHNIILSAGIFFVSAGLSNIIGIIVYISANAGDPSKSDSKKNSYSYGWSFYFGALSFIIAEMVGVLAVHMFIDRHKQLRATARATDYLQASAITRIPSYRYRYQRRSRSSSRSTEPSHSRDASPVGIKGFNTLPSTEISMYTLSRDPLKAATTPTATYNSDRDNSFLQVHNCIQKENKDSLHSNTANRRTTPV
Structure (SMILES),activation at 30 µM [1],other results
"O=C(c1ccc(-c2cccn3c(=O)c(Cl)c(C(F)(F)F)nc23)cc1F)N1CCCOCC1 [Example 81, 3-chloro-9-(3-fluoro-4-(1,4-oxazepan-4-ylcarbonyl)phenyl)-2-(trifluoromethyl)-4H-pyrido[1,2-a]pyrimidin-4-one]",95.1%,–
"O=C(c1ccc(-c2cccn3c(=O)c(Br)c(C(F)(F)F)nc23)cc1)N1CCOC(C(F)F)C1 (stereo not shown) [Example 114, 3-bromo-9-(4-((2-(difluoromethyl)morpholin-4-yl)carbonyl)phenyl)-2-(trifluoromethyl)-4H-pyrido[1,2-a]pyrimidin-4-one]",–,hGluR1 flip/30 μM (%) [1]: 77.2%
"CC1(O)CCN(C(=O)c2ccc(-c3cccn4c(=O)cc(C(F)(F)F)nc34)cc2)CC1 [Example 7, 9-(4-((4-hydroxy-4-methylpiperidin-1-yl)carbonyl)phenyl)-2-(trifluoromethyl)-4H-pyrido[1,2-a]pyrimidin-4-one]",94%,–
"O=C(c1ccc(-c2cccn3c(=O)cc(C(F)(F)F)nc23)cc1F)N1CCc2cccnc21 [Example 78, 9-(4-(2,3-dihydro-1H-pyrrolo[2,3-b]pyridin-1-ylcarbonyl)-3-fluorophenyl)-2-(trifluoromethyl)-4H-pyrido[1,2-a]pyrimidin-4-one]",94.2%,–
"O=C(c1ccc(-c2cccn3c(=O)c(Br)c(C(F)(F)F)nc23)cc1F)N1CCCOCC1 [Example 75, 3-bromo-9-(3-fluoro-4-(1,4-oxazepan-4-ylcarbonyl)phenyl)-2-(trifluoromethyl)-4H-pyrido[1,2-a]pyrimidin-4-one]",99.1%,–
"COC1CCN(C(=O)c2ccc(-c3cccn4c(=O)cc(C(F)(F)F)nc34)cc2F)CC1 [Example 89, 9-(3-fluoro-4-((4-methoxypiperidin-1-yl)carbonyl)phenyl)-2-(trifluoromethyl)-4H-pyrido[1,2-a]pyrimidin-4-one]",82.8%,–
"O=C(c1ccc(-c2cccn3c(=O)c(Br)c(C(F)(F)F)nc23)cc1)N1CCOC2CC21 (stereo not shown) [Example 128, 3-bromo-9-(4-(2-oxa-5 azabicyclo[4.1.0]hept-5-ylcarbonyl)phenyl)-2-(trifluoromethyl)-4H-pyrido[1,2-a]pyrimidin-4-one]",–,hGluR1 flip/30 μM (%) [1]: 70.9%
"Cc1c(C(F)(F)F)nc2c(-c3ccc(C(=O)N4CCO[C@@H](C)C4)cc3)cccn2c1=O [Example 67, 3-methyl-9-(4-(((2S)2-methylmorpholin-4-yl)carbonyl)phenyl)-2-(trifluoromethyl)-4H-pyrido[1,2-a]pyrimidin-4-one]",73.5%,–
"CN(C(=O)c1ccc(-c2cccn3c(=O)c(Br)c(C(F)(F)F)nc23)cc1F)C1CC1 [Example 94, 4-(3-bromo-4-oxo-2-(trifluoromethyl)-4H-pyrido[1,2-a]pyrimidin-9-yl)-N-cyclopropyl-2-fluoro-N-methylbenzamide]",94.4%,–

# Now from value to compound, other results behind:
activation at 30 µM [1],Structure (SMILES),other results
94.3%,"O=C(c1ccc(-c2cccn3c(=O)c(Br)c(C(F)(F)F)nc23)cc1)N1CCOCC1 [Example 14, 3-bromo-9-(4-(morpholin-4-ylcarbonyl)phenyl)-2-(trifluoromethyl)-4H-pyrido[1,2-a]pyrimidin-4-one]",Novel Object Interaction (%) [2]: 61.94 ± 2.33%; novel object interaction (result in words) [2]: increased the novel object interaction
88.1%,"C[C@H]1CN(C(=O)c2ccc(-c3cccn4c(=O)c(Br)c(C(F)(F)F)nc34)cc2)CCO1 [Example 48, 3-bromo-9-(4-(((2S)-2-methylmorpholin-4-yl)carbonyl)phenyl)-2-(trifluoromethyl)-4H-pyrido[1,2-a]pyrimidin-4-one]",Novel Object Interaction (%) [2]: 61.42 ± 2.61%; novel object interaction (result in words) [2]: increased the novel object interaction
86.7%,"Cc1c(C(F)(F)F)nc2c(-c3ccc(C(=O)NC4CCOCC4)cc3)cccn2c1=O [Example 125, 4-(3-methyl-4-oxo-2-(trifluoromethyl)-4H-pyrido[1,2-a]pyrimidin-9-yl)-N-(tetrahydro-2H-pyran-4-yl)benzamide]",–
71.4%,"O=C(NCC1CC1)c1ccc(-c2cccn3c(=O)c(Br)c(C(F)(F)F)nc23)cc1F [Example 70, 4-(3-bromo-4-oxo-2-(trifluoromethyl)-4H-pyrido[1,2-a]pyrimidin-9-yl)-N-(cyclopropylmethyl)-2-fluorobenzamide]",–
79.9%,"Cc1c(C(F)(F)F)nc2c(-c3ccc(C(=O)N4CCCOCC4)cc3)cccn2c1=O [Example 69, 3-methyl-9-(4-(1,4-oxazepan-4-ylcarbonyl)phenyl)-2-(trifluoromethyl)-4H-pyrido[1,2-a]pyrimidin-4-one]",–
73.8%,"Cc1c(C(F)(F)F)nc2c(-c3ccc(C(=O)N[C@@H]4CCCOC4)cc3)cccn2c1=O [Example 102, 4-(3-methyl-4-oxo-2-(trifluoromethyl)-4H-pyrido[1,2-a]pyrimidin-9-yl)-N-((3R)-tetrahydro-2H-pyran-3-yl)benzamide]",–
71%,"O=C(c1ccc(-c2cccn3c(=O)c(Br)c(C(F)(F)F)nc23)cc1)N1CCOCC(F)(F)C1 [Example 119, 3-bromo-9-(4-((6,6-difluoro-1,4-oxazepan-4-yl)carbonyl)phenyl)-2-(trifluoromethyl)-4H-pyrido[1,2-a]pyrimidin-4-one]",–
78.7%,"O=C(NC1CCOCC1)c1ccc(-c2cccn3c(=O)c(Br)c(C(F)(F)F)nc23)cc1 [Example 57, 4-(3-bromo-4-oxo-2-(trifluoromethyl)-4H-pyrido[1,2-a]pyrimidin-9-yl)-N-(tetrahydro-2H-pyran-4-yl)benzamide]",–
75.1%,"O=C(N[C@H]1CCOC1)c1ccc(-c2cccn3c(=O)c(Br)c(C(F)(F)F)nc23)cc1 [Example 55, 4-(3-bromo-4-oxo-2-(trifluoromethyl)-4H-pyrido[1,2-a]pyrimidin-9-yl)-N-((3S)-tetrahydrofuran-3-yl)benzamide]",–

# Source: patent US11407748B2, “Substituted pyrido[1,2-a]pyrimidines and pyrazino[1,2-a]pyrimidines for enhancing AMPA receptor function” (Takeda Pharmaceutical Company Limited, priority 2017, dated 2022)
